# Results: ChEMBL document CHEMBL5523759, “Discovery of Novel HDAC3 Inhibitors with PD-L1 Downregulating/Degrading and Antitumor Immune Effects” (J Med Chem, 2024)
# Activity calls are given as the source filed them. The rule behind the calls is not given here.
# What was measured:
# B16-F10 [1] = assay: Induction of apoptosis in mouse B16-F10 cells at 0.5 uM measured for 48 hrs by Annexin-V/FITC staining based flow cytometry analysis relative to control; type: functional
# [2] = Antiproliferative activity against human MINO cells assessed as reduction in cell viability measured for 48 hrs by MTT assay; type: functional, cell-based
# Histone deacetylase 8 = biological target: T1, Histone deacetylase 8 (Homo sapiens, UniProt Q9BY41); assay: Inhibition of human recombinant HDAC8 using Ac-Leu-Gly-Lys (Tfa)-AMC as substrate preincubated with compound for 10 mins followed by substrate addition and measured after 45 mins by TECAN microtiter plate reader analysis
# T1 sequence (Q9BY41 whole entry): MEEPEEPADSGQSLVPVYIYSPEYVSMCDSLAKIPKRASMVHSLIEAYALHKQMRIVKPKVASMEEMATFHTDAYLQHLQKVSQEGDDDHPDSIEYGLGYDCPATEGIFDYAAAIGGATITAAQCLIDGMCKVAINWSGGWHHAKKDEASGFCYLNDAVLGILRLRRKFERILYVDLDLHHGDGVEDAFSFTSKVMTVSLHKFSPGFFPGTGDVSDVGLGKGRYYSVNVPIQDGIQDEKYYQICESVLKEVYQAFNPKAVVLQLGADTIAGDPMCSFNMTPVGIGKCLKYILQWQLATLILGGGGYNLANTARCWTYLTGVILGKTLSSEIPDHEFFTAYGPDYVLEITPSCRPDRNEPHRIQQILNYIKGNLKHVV
# Raji = assay: Antiproliferative activity against human Raji cells assessed as reduction in cell viability measured for 48 hrs by MTT assay; type: functional, cell-based
# B16-F10 [3] = assay: Induction of apoptosis in mouse B16-F10 cells at 1 uM measured for 48 hrs by Annexin-V/FITC staining based flow cytometry analysis relative to control; type: functional
# [4] = biological target: T2, Histone deacetylase 8 (Mus musculus) (UniProt Q8VH37); assay: Inhibition of HDAC8 in mouse B16-F10 cells assessed as effect on acetylated SMC3 level at 1 to 2 uM measured for 24 hrs by Western blot analysis; type: cell-based; conditions: dose 1-2 µM
# T2 sequence (whole entry): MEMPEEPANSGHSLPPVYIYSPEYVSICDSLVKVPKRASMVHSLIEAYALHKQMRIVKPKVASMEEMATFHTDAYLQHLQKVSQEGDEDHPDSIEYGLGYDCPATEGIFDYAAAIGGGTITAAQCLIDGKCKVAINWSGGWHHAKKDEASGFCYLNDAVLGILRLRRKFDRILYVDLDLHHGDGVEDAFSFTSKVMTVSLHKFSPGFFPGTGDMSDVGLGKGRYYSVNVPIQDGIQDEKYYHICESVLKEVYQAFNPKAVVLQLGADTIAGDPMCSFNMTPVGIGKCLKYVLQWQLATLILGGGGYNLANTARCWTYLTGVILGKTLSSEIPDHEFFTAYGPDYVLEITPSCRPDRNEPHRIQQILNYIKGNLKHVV
# HepG2 = assay: Antiproliferative activity against human HepG2 cells assessed as reduction in cell viability measured for 48 hrs by MTT assay; type: functional, cell-based; conditions: HepG2, 48 h
# Jurkat = assay: Antiproliferative activity against human Jurkat T cells assessed as reduction in cell viability measured for 48 hrs by CCK-8 assay; type: functional, cell-based
# B16-F10 [5] = assay: Induction of apoptosis in mouse B16-F10 cells at 4 uM measured for 48 hrs by Annexin-V/FITC staining based flow cytometry analysis relative to control; type: functional
# Histone deacetylase 1 = Histone deacetylase 1 (Homo sapiens, UniProt Q13547); assay: Inhibition of human recombinant HDAC1 using Ac-Leu-Gly-Lys (Ac)-AMC as substrate preincubated with compound for 10 mins followed by substrate addition and measured after 45 mins by TECAN microtiter plate reader analysis
# MCF7 = assay: cells; conditions: Homo sapiens, MCF7, 48 h
# Description: Antiproliferative activity against human MCF7 cells assessed as reduction in cell viability measured for 48 hrs by MTT assay
# Daudi = assay: Antiproliferative activity against human Daudi cells assessed as reduction in cell viability measured for 48 hrs by MTT assay; type: functional, cell-based
# B16-F10 [6] = assay: Induction of cell cycle arrest in mouse B16-F10 cells assessed as accumulation of cells at G2/M phase measured for 48 hrs by flow cytometry analysis; type: functional, cell-based; conditions: dose 0.5-4 µM
# [7] = Aqueous solubility of compound measured for 24 hrs by shake flask based HPLC analysis; type: physicochemical; conditions: buffer
# B16-F10 [8] = assay: Induction of apoptosis in mouse B16-F10 cells at 8 uM measured for 48 hrs by Annexin-V/FITC staining based flow cytometry analysis relative to control; type: functional
# B16-F10 [9] = assay: Cytotoxicity against mouse B16-F10 cells assessed as increase in dead cells at 0.5 to 8 uM measured for 48 hrs by calcein-AM/propidium iodide staining based analysis; type: functional, cell-based; conditions: dose 0.5-8 µM
# Chain of Histone deacetylase 1 (Q13547 whole entry): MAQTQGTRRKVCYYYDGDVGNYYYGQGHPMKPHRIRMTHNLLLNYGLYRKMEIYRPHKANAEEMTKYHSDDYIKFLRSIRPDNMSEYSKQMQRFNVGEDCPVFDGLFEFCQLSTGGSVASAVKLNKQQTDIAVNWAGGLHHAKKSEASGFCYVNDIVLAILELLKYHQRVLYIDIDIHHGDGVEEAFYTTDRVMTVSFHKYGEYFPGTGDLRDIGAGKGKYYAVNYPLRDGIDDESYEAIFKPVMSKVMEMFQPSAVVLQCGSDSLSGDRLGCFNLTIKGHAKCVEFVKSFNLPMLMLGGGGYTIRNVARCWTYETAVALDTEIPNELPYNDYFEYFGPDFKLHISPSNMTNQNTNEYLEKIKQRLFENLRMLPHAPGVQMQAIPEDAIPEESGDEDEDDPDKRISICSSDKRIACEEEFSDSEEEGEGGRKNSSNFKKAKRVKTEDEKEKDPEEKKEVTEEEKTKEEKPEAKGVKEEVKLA
Structure (SMILES),Activity (B16-F10 [1]),IC50 [2],IC50 (Histone deacetylase 8),Activity (Raji),Activity (B16-F10 [3]),inhibition [4],IC50 (HepG2),IC50 (Jurkat),Activity (B16-F10 [5]),IC50 (Histone deacetylase 1),IC50 (MCF7),Activity (Daudi),Activity (B16-F10 [6]),solubility thermodynamic at 24 h [7],Activity (B16-F10 [8]),Activity (B16-F10 [9])
CCCNNC(=O)c1ccc(CNC(=O)c2ncc(CNc3ccccc3)s2)cc1,21.23%,30 nM,> 10000 nM,Active,31.49%,inactive,240 nM,90 nM,61.25%,730 nM,2940 nM,Active,Dose-Dependent Effect,15.6 µg/mL,71.07%,Active
Nc1ccccc1NC(=O)c1ccc(-c2ncc(CNc3ccccc3)s2)cc1,11%,52 nM,> 10000 nM,Active,13.2%,inactive,960 nM,140 nM,20.96%,510 nM,3340 nM,Active,Dose-Dependent Effect,3.8 µg/mL,29.59%,Active
